In data set [1] the test system is Escherichia coli O157:H7 (ATCC 35150). Put plainly: Test for apoptotic effects (viable colony count on selective media). Format: cell-based. The settings on record: compared with erythorbic acid and lauric acid; FIG. 4. Here is the method: (§1) Apoptotic effects of erythorbic acid, lauric acid, and erythorbyl laurate, which is a […] product of erythorbic acid and lauric acid and a material of interest in this experiment, on two kinds of Gram-negative bacteria and two kinds of Gram-positive bacteria were evaluated.
(§2) As selective media for antibiosis test, sorbitol MacConkey agar (SMAC) (available from Difco), Xylose Lysine Desoxycholate agar (XLD) (available from Difco), Oxford agar base with Bacto™ Oxford antimicrobial supplement (MOX) (available from Difco), and Baird-Parker Agar Base (BPA) (available from Difco) were used.
(§3) As bacterial strains, Escherichia coli O157:H7 (ATCC 35150), Salmonella typhimurium (ATCC 19586), Listeria monocytogenes (ATCC 19114), and Staphylococcus aureus (ATCC 27213) were prepared. Each of the bacterial strains was cultured in tryptic soy broth (Difco, Becton Dickinson, Sparks, Md., USA) for 24 hours at 37° C., centrifuged at 4000×g for 20 minutes at 4° C., and purified with buffered peptone water (BPW) (available from Difco). Each strain was prepared in the form of a bacterial suspension (10^6 CFU/ml).
(§4) For this experiment, first, 10 ml of erythorbic acid, 10 ml of lauric acid, and 10 ml of erythorbyl laurate were added to 0.1 ml of each bacterial suspension. The resulting solution was satisfactorily mixed using a vortex mixer for minutes. Thereafter, 1 ml of the resultant solution obtained by mixing each bacterial suspension and test compounds was mixed with 9 ml of sterilized peptone water. Then, the resulting mixture was diluted 1:10 using sterilized peptone water. 0.1 ml of the diluted solution was collected and plated on the selective media. The plated media were incubated at 37° C. for 24 hours, and then colonies grown in each plate were measured in log10 CFU/ml.

Data set [2] relates to Staphylococcus aureus (ATCC 27213). The data set is described as above. It is filed as cell-based. Here is the method:
as §1, §2, §3, §4

In data set [3] the test system is Listeria monocytogenes (ATCC 19114). The data set is described as above. It is filed as cell-based. Here is the method:
as §1, §2, §3, §4

Data set [4] deals with Salmonella typhimurium (ATCC 19586). The data set is described as above. The settings on record: compared with erythorbic acid and lauric acid; FIG. 4. Format: cell-based. Here is the method: as §1, §2, §3, §4
A further data set concerns Staphylococcus aureus. Put plainly: Test for bacterial proliferation inhibitory effects (absorbance at 600 nm). Format: cell-based. Here is the method: Meanwhile, as a result of examination of proliferation inhibition data of Staphylococcus aureus, a portion where an exponential phase of the bacteria starts was remarkably shown unlike Listeria monocytogenes. Thus, the concentration of erythorbyl laurate was further decreased and a growth curve of the bacteria was measured.

In data set [5] the test system is human intestinal epithelial cells INT-407. In words: Cytotoxicity test (MTT assay, cell viability). The settings on record: FIG. 7. A general note: Formazan colour is commonly taken as a measure of viable cells.
Data set [6] shares this test system.
Data set [7] deals with Escherichia coli O157:H7 (ATCC 35150). Put plainly: Test for bacterial proliferation inhibitory effects (absorbance at 600 nm). Format: cell-based. The settings on record: 37° C., 22 hours; FIG. 5.
The subject of the next data set is Listeria monocytogenes. The data set is described as above. The settings on record: 37° C., 22 hours; FIG. 5.
Data set [8] relates to Salmonella typhimurium (ATCC 19586). Described as above. Particulars: 37° C., 22 hours; FIG. 5.

For the compound `CCCCCCCCCCCC(=O)OC[C@@H](O)[C@H]1OC(=O)C(O)=C1O` [erythorbyl laurate], the apoptotic effects entry in data set [1] is recorded as “insignificant”; in [2] (FIG. 4), “excellent apoptotic effects”; in data set [3] (FIG. 4), “excellent apoptotic effects”; in data set [4], “insignificant”. For the same compound, the “apoptotic effects according to the concentration” value is reported as “continuous apoptotic effects” in [2] (at a concentration of 200 ppm or higher) and “apoptotic effects were increased in proportion to increase in the concentration” in [3] (up to 200 ppm). In data set [3] (above concentrations of 200 ppm), this compound gave a viable cell count of 0.48 CFU/ml. Further, the “bacterial proliferation inhibitory effects” value in the data set with Staphylococcus aureus (37° C., 22 hours, FIG. 5) is “effective bacterial proliferation inhibitory effects”; in data set [7], “insignificant bacterial proliferation inhibitory effects”; with Listeria monocytogenes, “effective bacterial proliferation inhibitory effects”; in [8], “insignificant bacterial proliferation inhibitory effects”. Also, the “growth curve of the bacteria as the concentration decreased” value in the data set with Staphylococcus aureus (decreasing concentration of erythorbyl laurate, FIG. 6) is “an induction phase decreased and the exponential phase was observed earlier”. Besides, the “cell viability compared with erythorbic acid” value in data set [5] (50 μM and 200 μM) is “cell viability similar to that when erythorbic acid was used”. In addition, the “cell viability compared with ascorbyl palmitate” value in data set [5] (all the concentrations) is recorded as “higher cell viability”. Besides, the cytotoxicity result in [6] is “no cytotoxicity”.
`CCCCCCCCCCCC(=O)O` [lauric acid]: the “bacterial proliferation inhibitory effects” value in data set [7] and in data set [8] was “insignificant bacterial proliferation inhibitory effects” throughout.
On to `O=C1O[C@H]([C@H](O)CO)C(O)=C1O` [erythorbic acid], for which the “bacterial proliferation inhibitory effects” value in data set [7] and in [8] was “insignificant bacterial proliferation inhibitory effects” throughout.

The record behind these values is patent publication US9000034B2, “Antibiotic composition containing erythorbyl laurate and its usage” (SNU R&DB Foundation, priority 2012, dated 2015).
